Reference: US4080460A, “Biguanides and therapeutic compositions and uses of the same” (Aron Sarl, priority 1975, dated 1978)
Counter-ions that a name gives are not always drawn. Like-named read-outs stand apart in the source and are kept apart here.

What was measured:
[1] = system: uptake of ^3 H noradrenalin by the synaptosomes of a rat hypothalamus homogenate; experiment: inhibition of the uptake of ^3 H noradrenalin by the synaptosomes of a rat hypothalamus homogenate; assay type: biochemical; conditions: with respect to the control test
Excerpt: The compounds of the formula (I) are capable of modifying the accumulation of noradrenalin and particularly to inhibit the uptake of ^3 H noradrenalin by the synaptosomes of a rat hypothalamus homogenate prepared according to Banerjee, Snyder and Mechoulam (J. Pharmacol. Exp. Ther., 194, 1, 74, 1975). This inhibition of the uptake of ^3 H noradrenaline is a known property of various compounds having an activity on the central nervous system and/or on the sympathetic nervous system, particularly a hypotensive effect (J. Glowinski and J. Axelrod, Effects of Drugs on the Disposition of ^3 H norepinephrine in the Rat Brain, Pharmacological Reviews, Vol. 18, n°1, Part I, 1966).
They are expressed as percent inhibition of the uptake with respect to the control test.

[2] = acute toxicity investigation in mice; conditions: mouse, in vivo
[3] = system: Grollman rats; experiment: action on the control of blood pressure in Grollman rats; assay type: in vivo, rat; conditions: oral, 2 × 3 mg/kg
Method: (§1) The above results are confirmed by the results of an investigation of the action on the control of blood pressure. On oral administration of a dosage of 2 × 3 mg/kg of compound to Doca rats (Technique according to Green and co-workers, Am. J. Physiol, 1952, 170, p.94) and to Grollman rats (Techniques according to Grollman, Proc. Soc. Exp. Biol. Med., 1944, 57, p.102), the precent decrease of the systolic blood pressure with respect to its original value is noted.

[4] = system: Doca rats; experiment: action on the control of blood pressure in Doca rats; assay type: in vivo, rat; conditions: oral, 2 × 3 mg/kg
Method: as §1

[5] = 5 × 10^-4 M ultimate concentration
[6] = po, read-out: LD50 (mg/kg) p.o.
[7] = iv, read-out: LD50 (mg/kg) i.v.
[8] = 5 × 10^-5 M ultimate concentration
[9] = 5 × 10^-6 M ultimate concentration

SMILES	inhibition % of the uptake of ^3 H noradrenalin [1, 5]	LD50 [2, 6]	LD50 [2, 7]	percent decrease of the systolic blood pressure with respect to its original value [3]	percent decrease of the systolic blood pressure with respect to its original value [4]	inhibition % of the uptake of ^3 H noradrenalin [1, 8]	inhibition % of the uptake of ^3 H noradrenalin [1, 9]
Cc1noc(NC(=N)NC(=N)N(C)C)c1C [Example 22]	38.1%	700 mg/kg					
Cc1onc(N(C)C(=N)NC(=N)N)c1C [Example 10]	19.5%	> 500 mg/kg	100 mg/kg				
CNC(=N)NC(=N)Nc1cc(C)on1 [Example 2, 1-methyl-5-(5-methyl-isoxazol-3-yl)biguanide]	53.6%	900 mg/kg					
Cc1cc(NC(=N)NC(=N)N2CCOCC2)no1 [Example 20]	46.6%	750 mg/kg	100 mg/kg				
N=C(N)NC(=N)Nc1ccon1 [Example 9]	68.6%	> 1000 mg/kg	> 150 mg/kg				
Cc1cc(NC(=N)NC(=N)N2CCN(C)CC2)no1 [Example 19]	53.8%	2000 mg/kg	100 mg/kg	20%			
CCN(C(=N)NC(=N)N)c1cc(C)on1 [Example 16]	37.9%	> 750 mg/kg					
Cc1cc(N(C)C(=N)NC(=N)N)no1 [Example 7]	48.1%				15%		
Cc1cc(NC(=N)NC(=N)N)no1 [Example 1, (5-methyl-isoxazol-3-yl)biguanide hydrochloride]		700 mg/kg	115 mg/kg	20%	25%		
CC(C)c1cc(NC(=N)NC(=N)N)no1 [Example 6]		200 mg/kg				54.6%	
Cc1conc1NC(=N)NC(=N)N(C)C [Example 11]	60.1%	300 mg/kg	40 mg/kg		15%		
CCCCc1cc(NC(=N)NC(=N)N)no1 [Example 5]	69.5%	600 mg/kg			10%		
Cc1cc(NC(=N)NC(=N)N(C)C)no1 [Example 3]	47.9%	800 mg/kg	140 mg/kg	10%			
CCCCNC(=N)NC(=N)Nc1cc(C)on1 [Example 13]	63.1%	250 mg/kg	35 mg/kg				
CCc1conc1NC(=N)NC(=N)N [Example 14]		500 mg/kg				61.8%	46.5%
Cc1conc1NC(=N)NC(=N)N [Example 8]		300 mg/kg	70 mg/kg	15%	15%	55%	36%
CCc1cc(NC(=N)NC(=N)N)no1 [Example 4]	52.7%	500 mg/kg	45 mg/kg				
